“And” between values parts separate entries of the source, which are not always exact repeats. Identical values can stand only once. Ends that are not written are not given here. * marks the point of attachment. FITC = O=C1OC2(c3ccc(O)cc3Oc3cc(O)ccc32)c2ccc(NC(=S)*)cc21; Ahx = NCCCCCC(=O)O
Experiments:
SmBiT-CHIP-G132N [1] = assay: NanoBiT live-cell interaction, COS-7, SmBiT-CHIP-G132N; assay type: cell-based; settings: COS-7, CHIP-G132N, three independent transfections, Fig. 1F
Description: (§1) HEK293 and COS-7 cells were acquired from the UNC Lineberger Comprehensive Cancer Center Tissue Culture Facility. Cultures were maintained in Dulbecco’s Modified Eagle Medium with 10% fetal bovine serum at 37 °C and 5% CO2. Using the manufacturers’ instructions, X-tremeGENE 9 was used to transfect cells with plasmid DNA except for NanoBiT constructs, in which case we used Lipofectamine 3000 (Thermo Fisher Scientific). Where indicated, twenty-four hours post-transfection, cells were treated with 20 μM MG-132 (Selleck Chemicals) for 6 h or 100 μM cycloheximide (Sigma-Aldrich) for the stated duration.
(§2) NanoBiT Protein: Protein Interaction System (Promega) was used to measure protein-protein interaction data following the manufacturer’s instructions. As previously described, LgBiT-HSP70 and SmBiT-CHIP construct interactions were used as positive controls ([22]). Twenty-four hours post-transfection, the cells were collected, replated in 96-well clear bottom white-sided tissue culture plates, and maintained at 37 °C and 5% CO2 for 45 min. Nano-Glo Live Cell Reagent (Promega) was added, and luminescence was measured using a CLARIOstar microplate reader over 20 minutes. The total area under the maximum luminescence curve was quantified and used to compare changes in HSP70-CHIP interactions relative to the WT-WT conditions.

CHIP-WT = target: T1, CHIP-WT (Homo sapiens, UniProt Q9UNE7); assay: Co-immunoprecipitation of HSP70 with CHIP-WT, COS-7; assay type: cell-based; settings: Co-IP of MYC-CHIP-WT, vs HSP70-WT and HSP70-T636A, densitometry, Fig. 1I
T1 construct: His; made in house
T1 sequence (Q9UNE7 1-303): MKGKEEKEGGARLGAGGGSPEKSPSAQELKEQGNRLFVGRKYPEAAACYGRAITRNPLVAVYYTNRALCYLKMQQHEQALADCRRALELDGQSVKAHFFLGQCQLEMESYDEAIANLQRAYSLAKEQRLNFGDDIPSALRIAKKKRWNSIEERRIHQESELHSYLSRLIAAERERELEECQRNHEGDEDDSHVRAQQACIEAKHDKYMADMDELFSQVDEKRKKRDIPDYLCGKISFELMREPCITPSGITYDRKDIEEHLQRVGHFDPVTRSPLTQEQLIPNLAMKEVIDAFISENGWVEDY
Description: (§3) Samples were collected in a lysis buffer composed of 50 mM Tris-HCl (pH 7.4), 150 mM NaCl, 2 mM EDTA, and 1% Triton X-100, supplemented with 1X Halt protease and phosphatase inhibitor (Thermo Scientific). The samples were then sonicated and combined with Laemmli sample buffer (Bio-Rad). The lysates were resolved on 4–15% TGX Stain-Free gels (Bio-Rad) and transferred to PVDF membranes (Bio-Rad). The membranes were blocked in 5% milk and incubated with primary antibodies (Table S3) overnight at 4°C. Following this, HRP-conjugated secondary antibodies (Cell Signaling Technology) were applied. Detection was performed using Lumigen ECL Ultra (Lumigen, tma-100), and the blots were imaged with the ChemiDoc Imaging System (BioRad).
(§4) Ezview™ Red Anti-c-Myc Affinity Gel Beads (Sigma-Aldrich) were used for co-immunoprecipitation of myc-tagged proteins. Proteins were eluted via boiling before western blot analysis.

SmBiT-CHIP-WT [2] = assay: NanoBiT live-cell interaction, HEK-293, SmBiT-CHIP-WT; assay type: cell-based; settings: HEK-293, CHIP-WT, luminescence over 20 min, three independent transfections, Fig. 1E
Description: as §1, §2

[3] = test system: HSP70 steady-state levels in COS-7 cells; assay: Cycloheximide chase of HSP70 steady-state levels, COS-7; assay type: cell-based
Description: as §1, §3

SmBiT-CHIP-G132N [4] = assay: NanoBiT live-cell interaction, HEK-293, SmBiT-CHIP-G132N; assay type: cell-based; settings: HEK-293, CHIP-G132N, three independent transfections, p = 0.2114 vs. Δ with CHIP-WT, Fig. 1E
Description: as §1, §2

HEK-293 cells = settings: HEK-293, electrical impedance; ref [16]; cited from earlier work
[5] = test system: HSP70 steady-state levels in HEK-293 cells; assay: Cycloheximide chase of HSP70 steady-state levels, HEK-293; assay type: cell-based; settings: Flag immunoblot, representative, Fig. S1
Description: as §1, §3

SmBiT-CHIP-WT [6] = assay: NanoBiT live-cell interaction, COS-7, SmBiT-CHIP-WT; assay type: cell-based; settings: COS-7, CHIP-WT, three independent transfections, Fig. 1F
Description: as §1, §2

CHIP-TPR (21–154) [7] = target: T2, CHIP-TPR (21–154) (UniProt Q9UNE7 21-154); assay: biolayer interferometry, peptide on sensor; settings: reference: biotin-EEVD peptide; sites T636
T2 construct: also called extended TPR domain of CHIP
T2 sequence (looked up): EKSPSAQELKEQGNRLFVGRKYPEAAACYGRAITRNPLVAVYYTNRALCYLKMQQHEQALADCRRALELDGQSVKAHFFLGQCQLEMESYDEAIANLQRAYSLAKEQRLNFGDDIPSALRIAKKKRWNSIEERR

CHIP TPR-CC = CHIP TPR-CC (Homo sapiens, UniProt Q9UNE7); assay: Fluorescence polarization, CHIP TPR-CC fragment; assay type: binding; settings: FP; Fig. 2C
From the text: (§5) A complete list of vectors is listed in Table S1 and deposited at Addgene (pending ID). Plasmids were maintained and propagated in DH5-alpha E. coli and purified using the Miniprep plasmid kit (Qiagen) or Quantum Prep® Plasmid Midiprep Kit (Bio-Rad). We used the Q5 Site-Directed Mutagenesis Kit (NEB) or […] II XL (NC9045762, Agilent Technologies) site-directed mutagenesis kit for editing plasmids and validated via DNA sequencing. Lifetein or Genscript synthesized the peptides used in the study. […] The amino-terminal biotin-labeled HSP70 tail peptide (biotin-[…], termed as biotin-EEVD) and the amino-terminal biotin-labeled pT-HSP70 tail peptide (biotin-GSGSGP(pT)IEEVD, termed as biotin-pEEVD) were purchased (Lifetein). The peptides used for fluorescent polarization were N-FITC-Ahx-[…] (EEVD) or N-FITC-Ahx-GSGP(pT)IEEVD (pEEVD). Recombinant CHIP-TPR constructs were recombinantly expressed using the pHis//2 CHIP-TPR (21–154) plasmid and purified as previously described ([21]) and additional CHIP proteins were purified as previously described ([22]).
(§6) The N-terminally-labelled peptides were loaded into PCR reaction tubes at 2X (40 nM), with the final concentration being 20 nM. Recombinant CHIP constructs were added into the tubes at the indicated concentrations. […] The polarization reads were normalized to the dilution buffer. […]

CHIP TPR-UBOX = assay: Fluorescence polarization, CHIP TPR-UBOX (CC deletion); assay type: binding; settings: FP; Fig. 2C
From the text: as §5, §6

[8] = target: T3, recombinant full-length CHIP-WT (UniProt Q9UNE7 1-303); assay: fluorescence polarisation; 20 nM N-terminally FITC-labelled peptide, recombinant CHIP constructs at increasing concentrations, 30 minutes at room temperature; one site/total binding fit with Bmax constrained to 100; settings: both partners purified
T3 sequence (looked up): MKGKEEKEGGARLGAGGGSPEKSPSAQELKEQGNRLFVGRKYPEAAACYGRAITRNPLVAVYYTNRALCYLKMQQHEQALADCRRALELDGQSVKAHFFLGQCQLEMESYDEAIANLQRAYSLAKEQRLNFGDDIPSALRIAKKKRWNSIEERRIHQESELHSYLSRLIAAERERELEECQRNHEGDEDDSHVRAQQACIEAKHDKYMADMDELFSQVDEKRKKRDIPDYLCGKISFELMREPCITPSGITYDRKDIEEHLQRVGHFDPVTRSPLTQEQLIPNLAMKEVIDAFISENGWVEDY

[9] = target: T4, recombinant full-length CHIP-G132N (UniProt Q9UNE7 1-303, G132N); assay: as above; settings: both partners purified
T4 construct: CHIP, full-length recombinant protein with G132N
T4 sequence (looked up): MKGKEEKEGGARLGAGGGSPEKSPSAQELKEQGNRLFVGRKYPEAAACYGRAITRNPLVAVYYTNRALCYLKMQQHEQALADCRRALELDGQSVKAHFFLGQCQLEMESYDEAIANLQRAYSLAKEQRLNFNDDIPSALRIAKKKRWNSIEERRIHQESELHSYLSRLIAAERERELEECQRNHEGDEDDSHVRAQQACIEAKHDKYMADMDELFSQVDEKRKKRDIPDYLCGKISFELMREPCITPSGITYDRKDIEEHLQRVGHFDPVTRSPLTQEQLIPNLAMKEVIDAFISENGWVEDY

CHIP-TPR (21–154) [10] = target: T2, CHIP-TPR (21–154); assay: as above; settings: both partners purified
[11] = target: T5, CHIP domain fragment: TPR with the coiled-coil domain; assay: FP
T5 chain: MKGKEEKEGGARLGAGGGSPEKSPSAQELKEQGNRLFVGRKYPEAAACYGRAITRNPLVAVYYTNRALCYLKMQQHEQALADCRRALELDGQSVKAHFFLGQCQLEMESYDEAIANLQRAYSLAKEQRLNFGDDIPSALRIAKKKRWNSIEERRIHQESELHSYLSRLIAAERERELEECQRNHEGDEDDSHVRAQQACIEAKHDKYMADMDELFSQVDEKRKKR

[12] = target: T6, recombinant full-length CHIP-WT (UniProt Q9UNE7 1-303); assay: FP
T6 chain: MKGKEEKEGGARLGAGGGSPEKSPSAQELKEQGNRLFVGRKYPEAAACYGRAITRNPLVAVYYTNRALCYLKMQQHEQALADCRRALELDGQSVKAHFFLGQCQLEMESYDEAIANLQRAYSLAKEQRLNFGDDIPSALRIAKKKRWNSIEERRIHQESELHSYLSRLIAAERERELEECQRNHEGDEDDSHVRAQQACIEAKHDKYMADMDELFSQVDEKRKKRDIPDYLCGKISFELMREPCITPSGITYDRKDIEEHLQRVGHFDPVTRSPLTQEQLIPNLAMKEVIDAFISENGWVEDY

[13] = target: recombinant full-length CHIP-K30A (UniProt Q9UNE7 1-303, K30A); assay: FP
[14] = target: recombinant full-length CHIP-G132N (UniProt Q9UNE7 1-303, G132N); assay: FP
HSP70 = assay: Co-immunoprecipitation of CHIP variants with HSP70, COS-7; assay type: cell-based; settings: Co-IP of MYC-CHIP, Fig. 1I
Description: as §3, §4

LgBiT-HSP70 T636A/D [15] = assay: NanoBiT live-cell interaction, HEK-293, CHIP variants with LgBiT-HSP70; assay type: cell-based; settings: compared with CHIP-WT, Fig. 1E
Description: as §1, §2

LgBiT-HSP70 T636A/D [16] = assay: NanoBiT live-cell interaction, COS-7, CHIP variants with LgBiT-HSP70; assay type: cell-based; settings: Fig. 1F
Description: as §1, §2

HSP70-T636D: phospho-mimetic version of HSP70
Δ luminescence comparing HSP70-T636D to HSP70-T636A (SmBiT-CHIP-G132N [1]): −66%
reduction of HSP70 co-precipitated by CHIP-WT (CHIP-WT): over 90%
decrease in luminescence compared to HSP70-T636A (SmBiT-CHIP-WT [2]): 42%
loss of HSP70 steady-state level after inhibiting translation ([3]; cycloheximide 100 μM, six hours, change from time 0, representative immunoblot, Fig. 1J): 76%
HSP70 steady-state level after cycloheximide ([3]; cycloheximide, six hours, compared to HSP70-WT and HSP70-T636A, Fig. 1J): more robust decreases
HSP70 steady-state level with proteasome inhibitor ([3]; with MG-132, Fig. 1J): recovery of protein levels
decrease in luminescence compared to HSP70-T636A (SmBiT-CHIP-G132N [4]): 57%
effect on cell growth / proliferation (HEK-293 cells): no effect
percent change of HSP70 level from time 0 ([5]; cycloheximide +MG132, 6 h (column from layout)): +98%
percent change of HSP70 level from time 0 ([5]; cycloheximide, 6 h, without MG132 (column from layout)): -80%
Δ luminescence comparing HSP70-T636D to HSP70-T636A (SmBiT-CHIP-WT [6]): −85%

HSP70 C-terminal tail (from UniProt P0DMV8) biotin-pEEVD (pT636) peptide
fold change (CHIP-TPR (21–154) [7]): weaker

N-FITC-Ahx-GSGPTIEEVD [unphosphorylated HSP70 tail peptide used for fluorescent polarization]
EEVD tail interaction, effect of the coiled-coil domain (CHIP TPR-CC): minimal change
EEVD tail peptide interaction with U-box moved closer to TPR (CHIP TPR-UBOX): eliminated EEVD tail peptide interactions

B1: N-FITC-Ahx-GSGPTIEEVD (peptide)
peptide: {FITC-Ahx}-GSGPTIEEVD
notes: C-terminal tail of HSP70; tracer of the fluorescence polarisation assay; also called HSP70 peptide tracer; source: synthetic peptide (Lifetein or Genscript)
binding result [8]: binds
binding result [9]: binds
binding result (CHIP-TPR (21–154) [10]): binds
Kd [11]: 28 µM
Kd [12]: 6.5 µM and 7 µM
Kd [13]: 66 µM
Kd [14]: 9.2 µM

B2: CHIP-K30A: substitution known to disrupt the ability of CHIP's TPR domain to bind EEVD motifs (protein)
chain: MKGKEEKEGGARLGAGGGSPEKSPSAQELAEQGNRLFVGRKYPEAAACYGRAITRNPLVAVYYTNRALCYLKMQQHEQALADCRRALELDGQSVKAHFFLGQCQLEMESYDEAIANLQRAYSLAKEQRLNFGDDIPSALRIAKKKRWNSIEERRIHQESELHSYLSRLIAAERERELEECQRNHEGDEDDSHVRAQQACIEAKHDKYMADMDELFSQVDEKRKKRDIPDYLCGKISFELMREPCITPSGITYDRKDIEEHLQRVGHFDPVTRSPLTQEQLIPNLAMKEVIDAFISENGWVEDY
co-precipitation of HSP70 by CHIP variant (HSP70): failed to precipitate appreciable amounts of HSP70 construct above background levels
luminescence of CHIP variant with HSP70-T636A/D (LgBiT-HSP70 T636A/D [15]): robust decrease in luminescence
luminescence of CHIP variant with HSP70 constructs (LgBiT-HSP70 T636A/D [16]): limited luminescence detected
